According to US20110039721A1, “METHOD FOR PREDICTION ABOUT CARCINOGENICITY OF SUBSTANCE IN RODENT” (Chemicals Evaluation and Research Institute, priority 2007, published 2011):
Read-outs that look alike come from different tables or passages of the source.

Assays:
[1] = classification of the substance (M+/M−); cited from earlier work
liver = conditions: cited from earlier work
rodent = conditions: classification of the substance (C+/C−); cited from earlier work
[2] = system: mRNA expressed from the genes (A) to (D) in rat liver; test: Behavior of genes (mRNA expression level, oligo-DNA microarray) in rat liver after 28-day oral administration; type: in vivo; conditions: for Behavior of gene caused by administration of chemical substance, Gene No. 4846 / Behavior of gene caused by administration of chemical substance, Gene No. 2026 / Behavior of gene caused by administration of chemical substance, Gene No. 4218 / Behavior of gene caused by administration of chemical substance, Gene No. 6182 / Behavior of gene caused by administration of chemical substance, Gene No. 5600: gene group (A); for Behavior of gene caused by administration of chemical substance, Gene No. 4846: Unigene No. Rn.144554; for Behavior of gene caused by administration of chemical substance, Gene No. 2026 / Behavior of gene caused by administration of chemical substance, Gene No. 4218: Unigene No. Rn.167075; for Behavior of gene caused by administration of chemical substance, Gene No. 6182: Unigene No. Rn.5834; for Behavior of gene caused by administration of chemical substance, Gene No. 5600: Unigene No. Rn.9836; for Behavior of gene caused by administration of chemical substance, Gene No. 1494 / Behavior of gene caused by administration of chemical substance, Gene No. 2045 / Behavior of gene caused by administration of chemical substance, Gene No. 2203: gene group (B); for Behavior of gene caused by administration of chemical substance, Gene No. 1494: Unigene No. Rn.1430; for Behavior of gene caused by administration of chemical substance, Gene No. 2045: Unigene No. Rn.19329; for Behavior of gene caused by administration of chemical substance, Gene No. 2203: Unigene No. Rn.21240; for Behavior of gene caused by administration of chemical substance, Gene No. 533 / Behavior of gene caused by administration of chemical substance, Gene No. 725 / Behavior of gene caused by administration of chemical substance, Gene No. 1163 / Behavior of gene caused by administration of chemical substance, Gene No. 4973 / Behavior of gene caused by administration of chemical substance, Gene No. 4095 / Behavior of gene caused by administration of chemical substance, Gene No. 1334 / Behavior of gene caused by administration of chemical substance, Gene No. 6620 / Behavior of gene caused by administration of chemical substance, Gene No. 6303 / Behavior of gene caused by administration of chemical substance, Gene No. 5878 / Behavior of gene caused by administration of chemical substance, Gene No. 1131 / Behavior of gene caused by administration of chemical substance, Gene No. 1562 / Behavior of gene caused by administration of chemical substance, Gene No. 1741 / Behavior of gene caused by administration of chemical substance, Gene No. 893 / Behavior of gene caused by administration of chemical substance, Gene No. 6026 / Behavior of gene caused by administration of chemical substance, Gene No. 154 / Behavior of gene caused by administration of chemical substance, Gene No. 1993 / Behavior of gene caused by administration of chemical substance, Gene No. 813 / Behavior of gene caused by administration of chemical substance, Gene No. 2494 / Behavior of gene caused by administration of chemical substance, Gene No. 2546 / Behavior of gene caused by administration of chemical substance, Gene No. 3776 / Behavior of gene caused by administration of chemical substance, Gene No. 3929 / Behavior of gene caused by administration of chemical substance, Gene No. 1119 / Behavior of gene caused by administration of chemical substance, Gene No. 6742 / Behavior of gene caused by administration of chemical substance, Gene No. 5634: gene group (C); for Behavior of gene caused by administration of chemical substance, Gene No. 533: Unigene No. Rn.106184; for Behavior of gene caused by administration of chemical substance, Gene No. 725: Unigene No. Rn.108075; for Behavior of gene caused by administration of chemical substance, Gene No. 1163: Unigene No. Rn.11766; for Behavior of gene caused by administration of chemical substance, Gene No. 4973: Unigene No. Rn.118529; for Behavior of gene caused by administration of chemical substance, Gene No. 4095: Unigene No. Rn.119024; for Behavior of gene caused by administration of chemical substance, Gene No. 1334 / Behavior of gene caused by administration of chemical substance, Gene No. 6620: Unigene No. Rn.120914; for Behavior of gene caused by administration of chemical substance, Gene No. 6303: Unigene No. Rn.123063; for Behavior of gene caused by administration of chemical substance, Gene No. 5878: Unigene No. Rn.143213; for Behavior of gene caused by administration of chemical substance, Gene No. 1131: Unigene No. Rn.144946; for Behavior of gene caused by administration of chemical substance, Gene No. 1562: Unigene No. Rn.14744; for Behavior of gene caused by administration of chemical substance, Gene No. 1741: Unigene No. Rn.1647; for Behavior of gene caused by administration of chemical substance, Gene No. 893: Unigene No. Rn.164817; for Behavior of gene caused by administration of chemical substance, Gene No. 6026: Unigene No. Rn.167685; for Behavior of gene caused by administration of chemical substance, Gene No. 154: Unigene No. Rn.185941; for Behavior of gene caused by administration of chemical substance, Gene No. 1993: Unigene No. Rn.18728; for Behavior of gene caused by administration of chemical substance, Gene No. 813: Unigene No. Rn.201760; for Behavior of gene caused by administration of chemical substance, Gene No. 2494: Unigene No. Rn.23969; for Behavior of gene caused by administration of chemical substance, Gene No. 2546: Unigene No. Rn.24561; for Behavior of gene caused by administration of chemical substance, Gene No. 3776: Unigene No. Rn.43232; for Behavior of gene caused by administration of chemical substance, Gene No. 3929: Unigene No. Rn.4620; for Behavior of gene caused by administration of chemical substance, Gene No. 1119: Unigene No. Rn.9757; for Behavior of gene caused by administration of chemical substance, Gene No. 6742: Unigene No. Rn.9779; for Behavior of gene caused by administration of chemical substance, Gene No. 5634: Unigene No. Rn.9862; for Behavior of gene caused by administration of chemical substance, Gene No. 5726: gene group (D), Unigene No. Rn.9939
Procedure, shortened: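 Rat liver RNA after 28 days of daily gavage dosing (male F344, 5 weeks old, four per group). A change reaching 1.5-fold, or 1/1.5, against solvent control scores as significant; opposite direction versus another carcinogen scores as not significant.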

Row | SMILES | Mutagenicity by Ames test [1] | Carcinogenicity (rodent) | Behavior of gene caused by administration of chemical substance, Gene No. 4846 [2] | Behavior of gene caused by administration of chemical substance, Gene No. 2026 [2] | Behavior of gene caused by administration of chemical substance, Gene No. 4218 [2] | Behavior of gene caused by administration of chemical substance, Gene No. 6182 [2] | Behavior of gene caused by administration of chemical substance, Gene No. 5600 [2] | Behavior of gene caused by administration of chemical substance, Gene No. 1494 [2] | Behavior of gene caused by administration of chemical substance, Gene No. 2045 [2] | Behavior of gene caused by administration of chemical substance, Gene No. 2203 [2] | Behavior of gene caused by administration of chemical substance, Gene No. 533 [2] | Behavior of gene caused by administration of chemical substance, Gene No. 725 [2] | Behavior of gene caused by administration of chemical substance, Gene No. 1163 [2] | Behavior of gene caused by administration of chemical substance, Gene No. 4973 [2] | Behavior of gene caused by administration of chemical substance, Gene No. 4095 [2] | Behavior of gene caused by administration of chemical substance, Gene No. 1334 [2] | Behavior of gene caused by administration of chemical substance, Gene No. 6620 [2] | Behavior of gene caused by administration of chemical substance, Gene No. 6303 [2] | Behavior of gene caused by administration of chemical substance, Gene No. 5878 [2] | Behavior of gene caused by administration of chemical substance, Gene No. 1131 [2] | other results
1 | CC(=O)Oc1ccccc1C(=O)O [TS071, Aspirin] | M− | C− | − | − | − | − | − | − | − | − | − | − | − | − | − | − | − | − | − | + | Liver carcinogenicity (liver; classification of the substance (Cr+/Cr−)): Cr−; Behavior of gene caused by administration of chemical substance, Gene No. 1562 [2]: −; Behavior of gene caused by administration of chemical substance, Gene No. 1741 [2]: −; Behavior of gene caused by administration of chemical substance, Gene No. 893 [2]: −; Behavior of gene caused by administration of chemical substance, Gene No. 6026 [2]: −; Behavior of gene caused by administration of chemical substance, Gene No. 154 [2]: −; Behavior of gene caused by administration of chemical substance, Gene No. 1993 [2]: −; Behavior of gene caused by administration of chemical substance, Gene No. 813 [2]: −; Behavior of gene caused by administration of chemical substance, Gene No. 2494 [2]: −; Behavior of gene caused by administration of chemical substance, Gene No. 2546 [2]: −; Behavior of gene caused by administration of chemical substance, Gene No. 3776 [2]: −; Behavior of gene caused by administration of chemical substance, Gene No. 3929 [2]: −; Behavior of gene caused by administration of chemical substance, Gene No. 1119 [2]: −; Behavior of gene caused by administration of chemical substance, Gene No. 6742 [2]: −; Behavior of gene caused by administration of chemical substance, Gene No. 5634 [2]: −; Behavior of gene caused by administration of chemical substance, Gene No. 5726 [2]: −
2 | NC(=O)c1ccccc1C(N)=O [TS073, Phthalamide] | M− | C− | − | − | − | − | − | − | + | − | − | − | − | − | − | − | − | − | − | − | Liver carcinogenicity (liver; in vivo): Cr−; Behavior of gene caused by administration of chemical substance, Gene No. 1562 [2]: −; Behavior of gene caused by administration of chemical substance, Gene No. 1741 [2]: −; Behavior of gene caused by administration of chemical substance, Gene No. 893 [2]: −; Behavior of gene caused by administration of chemical substance, Gene No. 6026 [2]: −; Behavior of gene caused by administration of chemical substance, Gene No. 154 [2]: −; Behavior of gene caused by administration of chemical substance, Gene No. 1993 [2]: −; Behavior of gene caused by administration of chemical substance, Gene No. 813 [2]: −; Behavior of gene caused by administration of chemical substance, Gene No. 2494 [2]: −; Behavior of gene caused by administration of chemical substance, Gene No. 2546 [2]: −; Behavior of gene caused by administration of chemical substance, Gene No. 3776 [2]: −; Behavior of gene caused by administration of chemical substance, Gene No. 3929 [2]: −; Behavior of gene caused by administration of chemical substance, Gene No. 1119 [2]: −; Behavior of gene caused by administration of chemical substance, Gene No. 6742 [2]: −; Behavior of gene caused by administration of chemical substance, Gene No. 5634 [2]: −; Behavior of gene caused by administration of chemical substance, Gene No. 5726 [2]: −
